Reference: patent US8912121B2, “Herbicidal compositions comprising 4-amino-3-chloro-5-fluoro-6-(4-chloro-2-fluoro-3-methoxyphenyl)pyridine-2-carboxylic acid or a derivative thereof and certain PS II inhibitors” (Dow Agrosciences LLC, priority 2012, dated 2014)

Test system: SCPMA (Schoenoplectus maritimus, sea clubrush)
Assay: In-water applied mixtures, transplanted paddy rice, greenhouse
Assay type: in vivo, Schoenoplectus maritimus (L.) Lye
Description: Weed seeds or nutlets of the desired test plant species were planted in puddled soil (mud) prepared by mixing a shredded, non-sterilized mineral soil (50.5 percent silt, 25.5 percent clay, and 24 percent sand, with a pH of about 7.6 and an organic matter content of about 2.9 percent) and water at a 1:1 volumetric ratio. The prepared mud was dispensed in 365 mL aliquots into 16-ounce (oz.) non-perforated plastic pots with a surface area of 86.59 square centimeters (cm^2) leaving a headspace of 3 centimeters (cm) in each pot Mud was allowed to dry overnight prior to planting or transplanting. Rice seeds were planted in Sun Gro MetroMix® 306 planting mixture, which typically has a pH of 6.0 to 6.8 and an organic matter content of about 30 percent, in plastic plug trays. Seedlings at the second or third leaf stage of growth were transplanted into 840 mL of mud contained in 32-oz. non-perforated plastic pots with a surface area of 86.59 cm^2 4 days prior to herbicide application. The paddy was created by filling the headspace of the pots with 2.5 to 3 cm of water. When required to ensure good germination and healthy plants, a fungicide treatment and/or other chemical or physical treatment was applied. The plants were grown for 4-22 days in a greenhouse with an approximate 14 h photoperiod which was maintained at about 29° C during the day and 26° C. during the night. Nutrients were added as Osmocote® (19:6:12, N:P:K+ minor nutrients) at 2 g per 16-oz. pot and 4 g per 32-oz. pot. Water was added on a regular basis to maintain the paddy flood, and supplemental lighting was provided with overhead metal halide 1000-Watt lamps as necessary. The plants were employed for testing when they reached the first through fourth true leaf stage.
Treatments consisted of the acid or esters of 4-amino-3-chloro-5-fluoro-6-(4-chloro-2-fluoro-3-methoxy-phenyl)pyridine-2-carboxylic acid (compound A) each formulated as an SC (suspension concentrate) and various herbicidal components alone and in combination. Forms of compound A were applied on an acid equivalent basis.
Other herbicidal components were applied on an active ingredient basis and included photosystem II (PSII)-inhibits propanil formulated as […] bentazon-sodium formulated as Basagran®, and simetryne (technical grade material).
Treatment requirements for each compound or herbicidal component were calculated based upon the rates being tested, the concentration of active ingredient or acid equivalent in the formulation, an application volume of 2 mL per component per pot, and an application area of 86.59 cm^2 per pot.
For formulated compounds, a measured amount was placed in an individual 100 or 200 mL glass vial and was dissolved in a volume of 1.25% (v/v) Agri-Dex® crop oil concentrate to obtain application solutions.
For technical grade compounds, a weighed amount was placed in an individual 100 to 200 mL glass vial and was dissolved in a volume of acetone to obtain concentrated stock solutions. […] The concentrated stock solutions obtained were diluted with an equivalent volume of an aqueous mixture containing 2.5% (v/v) crop oil concentrate so that the final application solutions contained 1.25% (v/v) crop oil concentrate.
Applications were made by injecting with a pipetter appropriate amounts of the application solutions, individually and sequentially, into the aqueous layer of the paddy. Control plants were treated in the same manner with the solvent blank. Applications were made so that all treated plant material received the same concentrations of acetone and crop oil concentrate.
The treated plants and control plants were placed in a greenhouse as described above and water was added as needed to maintain a paddy flood. After approximately 3 weeks the condition of the test plants as compared with that of the untreated plants was determined visually and scored on a scale of 0 to 100 percent where 0 corresponds to no injury or growth inhibition and 100 corresponds to complete kill. […]

SMILES: COc1c(Cl)ccc(-c2nc(C(=O)OCc3ccccc3)c(Cl)c(N)c2F)c1F [Compound A Benzyl Ester, benzyl ester of 4-amino-3-chloro-5-fluoro-6-(4-chloro-2-fluoro-3-methoxy-phenyl)pyridine-2-carboxylic acid]
- Visual Weed Control (%) Obs (8.75 g ae/ha, 21 DAA): 0%
- Visual Weed Control (%) Obs (17.5 g ae/ha, 21 DAA): 0%
- Visual Weed Control (%) Obs (35 g ae/ha, 20 DAA): 0%
- Visual Weed Control (%) Obs (35 g ae/ha, 21 DAA): 0%
- Visual Weed Control (%) Obs (70 g ae/ha, 20 DAA): 0%

SMILES: COc1c(Cl)ccc(-c2nc(C(=O)O)c(Cl)c(N)c2F)c1F [Compound A Acid, 4-amino-3-chloro-6-(4-chloro-2-fluoro-3-methoxyphenyl)-5-fluoropyridine-2-carboxylic acid]
- Visual Weed Control (%) Obs (8.75 g ae/ha, 21 DAA): 0%
- Visual Weed Control (%) Obs (17.5 g ae/ha, 21 DAA): 0%
- Visual Weed Control (%) Obs (35 g ae/ha, 21 DAA): 0%
- Visual Weed Control (%) Obs (42.4 g ae/ha, 20 DAA): 0%
- Visual Weed Control (%) Obs (84.8 g ae/ha, 20 DAA): 0%

SMILES: CCC(=O)Nc1ccc(Cl)c(Cl)c1 [Propanil, N-(3,4-dichlorophenyl)propanamide, reference compound]
- Visual Weed Control (%) Obs (1680 g ai/ha, 21 DAA): 50%
- Visual Weed Control (%) Obs (3360 g ai/ha, 21 DAA): 90%
